Activity calls are given as the source filed them.
Key:
MDCK [1] = experiment: Compound was tested for antiviral activity against influenza B in MDCK cells at concentration of 100 uM; Not active; format: functional, cell-based; details: Canis lupus familiaris
MDCK [2] = experiment: Compound was tested for antiviral activity against influenza A in MDCK cells at concentration of 100 uM; Not active; format: functional, cell-based; details: Canis lupus familiaris
Human alphaherpesvirus 2 = experiment: Compound was tested for antiviral activity against HSV-2; Not active; format: functional, organism-based
[3] = test system: Human immunodeficiency virus 1; experiment: Compound was tested for antiviral activity against HIV-1; Not active; format: functional
Human alphaherpesvirus 3 = experiment: Compound was tested for antiviral activity against VZV; Not active; format: functional, organism-based
Human betaherpesvirus 5 = experiment: Compound was tested for antiviral activity against HCMV; Not active; format: functional, organism-based

Measured: Activity

NC(=O)c1ncn(C2O[C@H](CO)C(O)[C@H]2F)n1 (single isomer, unassigned)
inactive: all assays above

NC(=O)c1ncn([C@@H]2O[C@H](CO)C(O)[C@H]2F)n1 (single isomer, unassigned)
inactive: all assays above

Source: ChEMBL document CHEMBL1150542, “Enzymatic synthesis and antiviral ativity of 2-deoxy-2-fluoro-ribavirin” (Bioorg Med Chem Lett, 1996)
